Results on three compounds are retold here after article PMC4715937 (Cancer research, 2016).

Common to all, as to format: cell-based, human
One assay relates to Ly19 cells. The experiment in a line: MTS assay of Ly19 cells with pro-oxidant and NF-κB inhibitor. To be noted: 3 days; PS-1145 4 μM, pyocyanin 350 μM, single agents.
The next assay relates to TMD8 cells. The experiment in a line: MTS cell proliferation assay, TMD8 cells. Conditions: antibody alone, 48 hours.
The subject of another assay is Heme oxygenase-1 (HMOX1). The experiment in a line: HMOX1 quantitative PCR and ELISA in DLBCL cells. Conditions: Ly19 cells, inhibitor at 4μM, 24 hours.

In the case of `Cn1c2cccc(=O)c-2nc2ccccc21` [pyocyanin], the Ly19 growth entry in the assay with Ly19 cells is “strongly inhibited lymphoma cell growth”.

Turning to ADALIMUMAB, the “cell growth of TMD8” value in the assay on TMD8 cells was “inhibited cell growth”.

As for `O=C(Nc1cc(Cl)cc2c1[nH]c1cnccc12)c1cccnc1` [PS-1145], the “HMOX1 induction in the presence of pyocyanin” value with Heme oxygenase-1 (HMOX1) is listed as “reduced HMOX1 induction”. In addition, the Ly19 growth result in the assay on Ly19 cells is “no effect on Ly19 growth”.
